The subject of data set [1] is Mus musculus. Description: Hypothermic effects in mice when administered subcutaneously. Type of data set: functional. The conditions noted are these: sc.
For data set [2], the system named is Mus musculus. The data set is described as follows: Hypothermic effects in mice when administered orally. The conditions noted are these: po. Type of data set: functional.
Data set [3] deals with T1, D(3) dopamine receptor (Homo sapiens, UniProt P35462).
Description: Binding affinity towards Dopamine receptor D3 by displacement of [3H](+)-7-OH-DPAT.
Data set [4] addresses T2, 5-hydroxytryptamine receptor 1A (Homo sapiens, UniProt P08908).
T2 sequence (P08908 whole entry): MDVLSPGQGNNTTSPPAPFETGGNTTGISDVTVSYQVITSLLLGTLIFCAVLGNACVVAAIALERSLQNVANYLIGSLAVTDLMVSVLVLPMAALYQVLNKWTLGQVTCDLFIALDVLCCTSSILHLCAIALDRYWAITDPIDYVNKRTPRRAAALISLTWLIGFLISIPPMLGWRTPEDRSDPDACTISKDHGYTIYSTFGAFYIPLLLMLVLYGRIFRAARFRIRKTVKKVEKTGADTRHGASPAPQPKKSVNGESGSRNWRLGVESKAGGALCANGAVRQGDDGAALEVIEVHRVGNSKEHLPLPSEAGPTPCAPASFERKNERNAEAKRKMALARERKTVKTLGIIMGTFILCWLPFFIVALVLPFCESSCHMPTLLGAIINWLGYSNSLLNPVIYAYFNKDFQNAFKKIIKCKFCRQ

In data set [5] the target is T1, D(3) dopamine receptor. This is another data set of the same source.
Data set [6] deals with T3, D(2) dopamine receptor (Homo sapiens, UniProt P14416).
T3 sequence (P14416 whole entry): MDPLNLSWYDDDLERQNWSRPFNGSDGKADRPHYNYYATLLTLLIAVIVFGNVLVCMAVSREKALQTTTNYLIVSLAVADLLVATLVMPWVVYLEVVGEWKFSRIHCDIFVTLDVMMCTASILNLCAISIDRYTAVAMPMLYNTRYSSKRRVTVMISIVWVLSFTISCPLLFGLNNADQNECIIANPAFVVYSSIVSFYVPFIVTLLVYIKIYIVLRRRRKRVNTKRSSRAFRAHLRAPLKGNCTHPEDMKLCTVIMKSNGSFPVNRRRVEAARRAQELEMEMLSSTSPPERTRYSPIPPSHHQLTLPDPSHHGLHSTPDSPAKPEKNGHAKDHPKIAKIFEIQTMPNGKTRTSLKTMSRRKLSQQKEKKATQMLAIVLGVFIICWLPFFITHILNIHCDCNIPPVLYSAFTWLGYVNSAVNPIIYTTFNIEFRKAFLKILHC
Data set [7] is filed under the species Rattus norvegicus. Description: Metabolism of compound in rat S9 microsomes ('+''indicates <20% largest observed peak). It is filed as ADME.
Data set [8] in a line: Metabolism of compound in human microsomes; Trace. Type of data set: ADME, Microsome.
Data set [9] can be described thus: Metabolism of compound in mini pig S9 microsomes ('+''indicates <20% largest observed peak). Type of data set: ADME, Sus scrofa, Microsome.
Data set [10] has as its target T3, D(2) dopamine receptor. The source holds these as a separate data set.
Description: Binding affinity towards Dopamine receptor D2 by displacement of [3H]U-86170.
Data set [11] can be described thus: Metabolism of compound in human liver slices (male) ('++''indicates 20-50% largest observed peak). Type of data set: ADME, tissue-based.
For data set [12], the species on record is Canis familiaris. The data set is described as follows: Metabolism of compound in dog S9 microsomes; Trace. It is filed as ADME, Canis lupus familiaris.
The species entered for data set [13] is Mus musculus. Description: Metabolism of compound in mouse S9 microsomes ('++++' indicates largest observed peak). Type of data set: ADME.
Data set [14] is described as follows: Metabolism of compound in monkey S9 microsomes ('++++' indicates largest observed peak). It is filed as ADME, Microsome. The conditions noted are these: cercopithecidae.
A short description of data set [15]: Metabolism of compound in rabbit S9 microsomes ('++++' indicates largest observed peak). Type of data set: ADME, Oryctolagus cuniculus, Microsome.
Data set [16] deals with T2, 5-hydroxytryptamine receptor 1A. The source holds these as a separate data set.
Description: Binding affinity towards Serotonin 5-hydroxytryptamine 1A receptor by displacement of [3H]-(+)-8-OH-DPAT.
For data set [17], the species on record is Rattus norvegicus. The data set is described as follows: The stability relative to the U-93385 compound.
Data set [18] can be described thus: Metabolism of compound in human microsomes ('++++' indicates largest observed peak). It is filed as ADME, Microsome.
For data set [19], the species on record is Canis familiaris. Description: Metabolism of compound in dog S9 microsomes ('++++' indicates largest observed peak). Type of data set: ADME, Canis lupus familiaris.
A short description of data set [20]: Metabolism of compound in human liver slices (male) ('++++' indicates largest observed peak). It is filed as ADME, tissue-based.
A short description of data set [21]: Metabolism of compound in monkey S9 microsomes ('+++'indicates 50-80% largest observed peak). It is filed as ADME, Microsome. The conditions noted are these: cercopithecidae.
Data set [22] is filed under the species Rattus norvegicus. The data set is described as follows: Metabolism of compound in rat S9 microsomes ('++++' indicates largest observed peak). Type of data set: ADME.
The nature of data set [23]: Metabolism of compound in rabbit S9 microsomes ('+''indicates <20% largest observed peak). Type of data set: ADME, Oryctolagus cuniculus, Microsome.
The species named for data set [24] is Mus musculus. Description: Metabolism of compound in Mouse S9 microsomes ('++++'indicates largest observed peak). Type of data set: ADME.
Data set [25] is described as follows: Metabolism of compound in mini pig S9 microsomes ('++++' indicates largest observed peak). Type of data set: ADME, Sus scrofa, Microsome.
A short description of data set [26]: Metabolism of compound in monkey S9 microsomes ('+''indicates <20% largest observed peak). The conditions noted are these: cercopithecidae. It is filed as ADME, Microsome.
A short description of data set [27]: Metabolism of compound in human liver slices (male) ('+''indicates <20% largest observed peak). It is filed as ADME, tissue-based.
Data set [28] is filed under the species Mus musculus. The data set is described as follows: Metabolism of compound in mouse S9 microsomes ('+''indicates <20% largest observed peak). Type of data set: ADME.
The species named for data set [29] is Rattus norvegicus. The data set is described as follows: Metabolism of compound in rat S9 microsomes; Trace. Type of data set: ADME.
For data set [30], the species on record is Canis familiaris. Description: Metabolism of compound in dog S9 microsomes ('++''indicates 20-50% largest observed peak). Type of data set: ADME, Canis lupus familiaris.
A short description of data set [31]: Metabolism of compound in human microsomes ('+''indicates <20% largest observed peak). It is filed as ADME, Microsome.
Data set [32] in a line: Metabolism of compound in monkey S9 microsomes ('++''indicates 20-50% largest observed peak). It is filed as ADME, Microsome. The conditions noted are these: cercopithecidae.

T1 sequence (P35462 whole entry): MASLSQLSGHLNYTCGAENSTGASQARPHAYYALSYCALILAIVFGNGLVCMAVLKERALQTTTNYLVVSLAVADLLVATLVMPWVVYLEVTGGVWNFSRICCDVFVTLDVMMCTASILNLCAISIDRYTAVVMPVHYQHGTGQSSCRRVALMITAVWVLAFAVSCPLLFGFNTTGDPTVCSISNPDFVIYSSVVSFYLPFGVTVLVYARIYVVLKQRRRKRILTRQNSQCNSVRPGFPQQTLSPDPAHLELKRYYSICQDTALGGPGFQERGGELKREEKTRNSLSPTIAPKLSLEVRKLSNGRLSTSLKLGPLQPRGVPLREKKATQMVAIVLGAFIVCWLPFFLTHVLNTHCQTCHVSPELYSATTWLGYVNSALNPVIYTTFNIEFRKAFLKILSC

As for `CCCN[C@@H]1Cc2cccc3nc(O)n(c23)C1`, the ED50 in data set [1] amounted to 0.01 mg/kg; in data set [2] it was 0.41 mg/kg. Further, in [3], affinity was put at a Ki of 0.036 µM.

For the compound `CN(C)[C@H]1Cc2cccc3nc(O)n(c23)C1`, the Ki result in data set [4], in data set [5] and in data set [6] was “Not Active” each time. The compound further returned a median effective dose (ED50) in data set [1] of 17.3 mg/kg.

Turning to `CN(C)[C@@H]1Cc2cccc3[nH]c(=O)n(c23)C1`, the ED50 in data set [1] was found to be 0.41 mg/kg; in data set [2] it was 1.3 mg/kg. Moreover, the Metabolism result in data set [7], in data set [8], in data set [9], in data set [11], in data set [12] and in data set [13] was “Partially active” in each case. Besides, the Metabolism result in [14] and in [15] was “Partially active” in each case. For the same compound, the Ki in data set [10] was found to be 0.012 µM; in data set [3] it was 1.93 µM.

On to `CC(C)C[C@H]1C(=O)N2CCC[C@H]2[C@]2(O)O[C@](NC(=O)[C@@H]3C=C4c5cccc6[nH]c(Br)c(c56)C[C@H]4N(C)C3)(C(C)C)C(=O)N12` [BROMOCRIPTINE], for which the Ki is 0.024 µM in data set [16], 0.01 µM in data set [10] and 0.087 µM in data set [3].

As for `CCCN(CCC)CCc1cccc2c1CC(=O)N2` [ROPINIROLE], the Ki in data set [16] was determined as 1.71 µM; in data set [10], 0.0072 µM.

In the case of `CN(C)[C@@H]1Cc2cccc3ncn(c23)C1`, the Ki is over 3.52 µM in [16], 1.28 µM in data set [10] and 2.95 µM in data set [3]. Also, in [17], the Relative stability was 1. Besides, the Metabolism result in [18], in data set [19], in data set [20], in data set [21], in data set [22] and in data set [23] was “Partially active” in each case. For the same compound, the Metabolism entry in data set [24] and in data set [25] was “Partially active” in each case. The ED50 in data set [1] and in [2] was 0.073 mg/kg each time.

As for `CN[C@H]1Cc2cccc3nc(O)n(c23)C1`, the inhibitory constant (Ki) entry in data set [4], in data set [5] and in [6] was “Not Active” each time.

Regarding `CN[C@@H]1Cc2cccc3[nH]c(=O)n(c23)C1` [SUMANIROLE], the Metabolism entry in [26], in [23], in data set [27], in data set [28] and in [29] was “Partially active” throughout. In addition, the values for the Ki in data set [16] and in data set [3] were 0.073 µM and 2.33 µM, respectively. In addition, the ED50 in [1] is 0.73 mg/kg; in data set [2], 0.41 mg/kg.

`CN[C@@H]1Cc2cccc3ncn(c23)C1`: the Ki in data set [16] is over 3.26 µM; in data set [10], 0.355 µM; in data set [3] it was 2.46 µM. The same compound came in with a Relative stability in data set [17] of 0.86. The Metabolism result in [30], in [31], in data set [7], in [9], in data set [11] and in data set [32] was “Partially active” each time. Moreover, the Metabolism entry in [23] and in [28] was “Partially active” each time. Also, the ED50 is 0.31 mg/kg in data set [1] and 0.73 mg/kg in [2].

With `CN(C)[C@H]1Cc2cccc3ncn(c23)C1`, the Ki result in data set [4], in [5] and in data set [6] was “Not Active” each time. Moreover, in data set [1], the ED50 stood at 17.3 mg/kg.

The values above are taken from ChEMBL document CHEMBL1130416, “Synthesis and biological activities of (R)-5,6-dihydro-N,N-dimethyl-4H-imidazo[4,5,1-ij]quinolin-5-amine and its metabolites” (J Med Chem, 1997).
